Data as given in article PMC11500415, “Chemical inhibition of stomatal differentiation by perturbation of the master-regulatory bHLH heterodimer via an ACT-Like domain” (Nature Communications, 2024).
“And” between values parts separate entries of the source, which are not always exact repeats. Equal entries are not always repeated.

Assays:
SCRM2-SPCH heterodimer = target: T1, SCRM2-SPCH heterodimer (Arabidopsis thaliana, UniProt Q700C7); test: Ratiometric BiFC in N. benthamiana leaves; assay type: cell-based; conditions: SPCH-SCRM2 pair, STOMI-treated, rescaled, average of 20; DMSO 0.870846
T1 construct: heterodimerization of SCRM with full-length SPCH, MUTE, or FAMA in the context of the plant cells; we performed rBiFC assays using full-length SCRM2; nYFP (N terminus of EYFP, 174 amino acids); cYFP (C terminus of EYFP, 64 amino acids); expressed in transfected cells; host or cells: Nicotiana benthamiana leaves (Agrobacterium infiltration)
Description: (§1) For ratiometric BiFC assays, the cDNAs of SPCH, MUTE, and FAMA were cloned into the 35S CaMV promoter-driven destination vector pSPYNE, which contains the N terminus of the EYFP protein (nYFP-174 amino acids), while the cDNA of SCRM and SCRM2 was inserted into pSPYCE, which contains the C terminus of the EYFP protein (cYFP-64 amino acids) (see Supplementary Table 5 for detailed information of the constructs). The constructs were then transformed into Agrobacterium tumefaciens strain GV3101. The Agrobacterium was resuspended in infiltration buffer (10 mM MgCl2, 10 mM 2-(N-morpholino)ethanesulfonic acid [pH 5.6], and 150 µM acetosyringone). Bacterial culture densities were adjusted to a final optical density (OD600) of 1.0, and the cell suspensions were incubated at room temperature for 4 hours prior to infiltration. Equal volumes of cultures carrying the corresponding complementary pair of BiFC constructs (YFPn and YFPc), along with CaMV35S::Histone H2B-mScarlet-I3 and the silencing suppressor plasmid p19 (a gift from Dr. Sir David Baulcombe) were mixed and then co-infiltrated into 4-week-old N. benthamiana leaves. The infiltrated N. benthamiana leaves were incubated at 25 °C for 2 days. Subsequently, leaf discs were cut out and cultured in mock or in liquid 1/2 MS media in mock (DMSO) or 100 µM Stomidazolone for 1 day. Confocal imaging of N. benthamiana leaves was performed using a Leica SP8 confocal microscope using a 20X objective lens (Leica Microsystems), simultaneously capturing YFP (excitation at 518 nm and emission at 530 nm) and mScarlet-I3 (excitation at 569 nm and emission at 600 nm) differential interference contrast channels.

SCRM-MUTE heterodimer = target: T2, SCRM-MUTE heterodimer (Arabidopsis thaliana, UniProt Q9M8K6); test: Ratiometric BiFC in N. benthamiana leaves; assay type: cell-based; conditions: BiFC MUTE+SCRM, STOMI-treated, individual measurements
T2 construct: expressed in transfected cells; host or cells: yeast strain AH109
T2 sequence (Q9M8K6 1-202): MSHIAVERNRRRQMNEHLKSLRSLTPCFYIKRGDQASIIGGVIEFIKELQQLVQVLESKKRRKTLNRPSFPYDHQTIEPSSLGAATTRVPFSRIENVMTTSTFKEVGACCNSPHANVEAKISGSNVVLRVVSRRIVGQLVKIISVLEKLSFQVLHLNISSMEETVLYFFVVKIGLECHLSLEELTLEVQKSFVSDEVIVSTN
Description: as §1

SCRM2-FAMA heterodimer = target: T3, SCRM2-FAMA heterodimer (Arabidopsis thaliana, UniProt Q56YJ8); test: Ratiometric BiFC in N. benthamiana leaves; assay type: cell-based; conditions: FAMA-SCRM2 pair, STOMI-treated, rescaled, average of 20; DMSO 0.813227
T3 construct: heterodimerization of SCRM with full-length SPCH, MUTE, or FAMA in the context of the plant cells; we performed rBiFC assays using full-length SCRM2; nYFP (N terminus of EYFP, 174 amino acids); cYFP (C terminus of EYFP, 64 amino acids); expressed in transfected cells; host or cells: Nicotiana benthamiana leaves (Agrobacterium infiltration)
Description: as §1

SCRM2-MUTE heterodimer = target: T4, SCRM2-MUTE heterodimer (Arabidopsis thaliana, UniProt Q9M8K6); test: Ratiometric BiFC in N. benthamiana leaves; assay type: cell-based; conditions: MUTE-SCRM2 pair, STOMI-treated, rescaled, average of 20; DMSO 0.692877
T4 construct: heterodimerization of SCRM with full-length SPCH, MUTE, or FAMA in the context of the plant cells; nYFP (N terminus of EYFP, 174 amino acids); expressed in transfected cells; host or cells: Nicotiana benthamiana leaves (Agrobacterium infiltration)
Description: as §1

SCRM-FAMA heterodimer = target: T5, SCRM-FAMA heterodimer (Arabidopsis thaliana, UniProt Q56YJ8); test: Ratiometric BiFC in N. benthamiana leaves; assay type: cell-based; conditions: BiFC FAMA+SCRM, STOMI-treated, individual measurements
T5 construct: heterodimerization of SCRM with full-length SPCH, MUTE, or FAMA in the context of the plant cells; combinations of split YFP constructs fused to the full-length stomatal bHLH proteins; nYFP (N terminus of EYFP, 174 amino acids); cYFP (C terminus of EYFP, 64 amino acids); expressed in transfected cells; host or cells: Nicotiana benthamiana leaves (Agrobacterium infiltration)
T5 sequence (Q56YJ8 1-414): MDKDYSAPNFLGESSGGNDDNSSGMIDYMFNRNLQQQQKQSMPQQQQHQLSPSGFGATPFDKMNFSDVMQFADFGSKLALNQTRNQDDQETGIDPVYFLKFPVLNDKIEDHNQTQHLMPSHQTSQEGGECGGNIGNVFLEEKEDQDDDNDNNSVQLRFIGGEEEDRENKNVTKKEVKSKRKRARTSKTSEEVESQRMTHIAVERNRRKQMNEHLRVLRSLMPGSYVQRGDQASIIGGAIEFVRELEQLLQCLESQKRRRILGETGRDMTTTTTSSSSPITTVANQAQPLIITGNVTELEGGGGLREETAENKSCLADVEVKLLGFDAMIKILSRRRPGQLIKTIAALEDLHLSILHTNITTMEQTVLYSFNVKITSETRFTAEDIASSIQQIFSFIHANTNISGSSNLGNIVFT
Description: as §1

SCRM-SPCH heterodimer = target: T6, SCRM-SPCH heterodimer (Arabidopsis thaliana, UniProt Q700C7); assay type: cell-based; conditions: STOMI-treated
T6 construct: heterodimerization of SCRM with full-length SPCH, MUTE, or FAMA in the context of the plant cells; combinations of split YFP constructs fused to the full-length stomatal bHLH proteins; nYFP (N terminus of EYFP, 174 amino acids); cYFP (C terminus of EYFP, 64 amino acids); expressed in transfected cells; host or cells: Nicotiana benthamiana leaves (Agrobacterium infiltration)
T6 sequence (Q700C7 1-364): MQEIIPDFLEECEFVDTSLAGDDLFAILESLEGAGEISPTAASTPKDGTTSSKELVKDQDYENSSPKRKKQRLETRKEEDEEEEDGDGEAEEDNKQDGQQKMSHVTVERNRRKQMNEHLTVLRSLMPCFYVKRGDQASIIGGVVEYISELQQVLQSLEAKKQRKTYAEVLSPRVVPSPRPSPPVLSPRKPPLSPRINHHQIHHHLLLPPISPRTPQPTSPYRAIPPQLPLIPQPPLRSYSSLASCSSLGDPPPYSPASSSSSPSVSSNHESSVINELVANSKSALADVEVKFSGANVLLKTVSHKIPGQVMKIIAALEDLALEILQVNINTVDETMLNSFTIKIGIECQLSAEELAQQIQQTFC
Description: as §1

empty+SCRM (control) = target: T7, empty+SCRM (control) (Arabidopsis thaliana, UniProt Q9LSE2); test: Ratiometric BiFC, control empty+SCRM; assay type: cell-based; conditions: STOMI-treated, individual measurements
T7 construct: split YFP constructs fused to the full-length stomatal bHLH proteins; expressed in transfected cells; host or cells: Nicotiana benthamiana leaves (Agrobacterium infiltration)
T7 sequence (Q9LSE2 1-494): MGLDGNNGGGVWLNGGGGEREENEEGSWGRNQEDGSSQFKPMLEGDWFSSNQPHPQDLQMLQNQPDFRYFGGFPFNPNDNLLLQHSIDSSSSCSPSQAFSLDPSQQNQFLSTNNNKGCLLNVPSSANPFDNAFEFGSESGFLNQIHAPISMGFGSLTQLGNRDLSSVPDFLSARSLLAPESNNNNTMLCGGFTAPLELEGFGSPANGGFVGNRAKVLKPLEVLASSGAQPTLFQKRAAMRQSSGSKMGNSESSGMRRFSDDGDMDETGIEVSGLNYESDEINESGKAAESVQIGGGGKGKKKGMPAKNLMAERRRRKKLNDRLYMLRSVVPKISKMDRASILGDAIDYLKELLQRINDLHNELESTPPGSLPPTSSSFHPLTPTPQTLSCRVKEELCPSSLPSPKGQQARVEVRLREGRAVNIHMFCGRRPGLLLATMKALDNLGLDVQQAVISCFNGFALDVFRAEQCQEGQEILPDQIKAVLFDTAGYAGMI

stomatal movement = test system: stomatal movement; set-up: method as in PMID 35042960; conditions: previous chemical screens and SAR studies; cited from earlier work
[1] = BiFC SPCH+SCRM, individual measurements

SMILES	BiFC YFP/mScarlet signal intensity ratio, average (SCRM2-SPCH heterodimer)	YFP (SCRM-MUTE heterodimer)	YFP/mScarlet (SCRM-MUTE heterodimer)	mScarlet (SCRM-MUTE heterodimer)	BiFC YFP/mScarlet signal intensity ratio, average (SCRM2-FAMA heterodimer)	BiFC YFP/mScarlet signal intensity ratio, average (SCRM2-MUTE heterodimer)	YFP (SCRM-FAMA heterodimer)	YFP/mScarlet (SCRM-FAMA heterodimer)	mScarlet (SCRM-FAMA heterodimer)	YFP (SCRM-SPCH heterodimer; [1])	mScarlet (SCRM-SPCH heterodimer; [1])	BiFC YFP/mScarlet signal intensity ratio, average (SCRM-SPCH heterodimer; SPCH-SCRM pair, rescaled, average of 20, DMSO 0.999748)	YFP (empty+SCRM (control))	YFP/mScarlet (empty+SCRM (control))	mScarlet (empty+SCRM (control))	effect on stomatal movement (in words) (stomatal movement)
O=C1C(c2ccccc2)=NC(NS(=O)(=O)c2ccccc2)(c2ccccc2)N1S(=O)(=O)c1ccccc1 (racemic) [STOMI]	0.1468	1.16E+01 and 3.104 and 3.249 and 11.738 and 9.681 and 6.858	0.2554 and 0.01703 and 0.0181 and 0.2123 and 0.2385 and 0.1574	45.576 and 182.295 and 179.515 and 55.282 and 40.598 and 43.561	0.1443	0.1063	186.917 and 54.749 and 197.322 and 78.346 and 117.223 and 50.688	0.9773 and 1.064 and 0.9455 and 1.191 and 0.9038 and 0.8169	191.252 and 51.452 and 208.697 and 65.781 and 129.694 and 62.052	42.813 and 234.339 and 61.532 and 61.417 and 224.742 and 142.963	36.031 and 235.498 and 75.919 and 70.723 and 231.024 and 153.918	0.9445	0.095 and 0.409 and 0 and 0.026 and 5.60E-04 and 0.042	0.0009064 and 0.01087 and 0 and 0.0008066 and 3.5039e-6 and 0.000976	104.805 and 37.637 and 55.755 and 32.234 and 159.765 and 43.034	–
O=S(=O)(c1ccccc1)N(c1oc(-c2ccccc2)nc1-c1ccccc1)S(=O)(=O)c1ccccc1 [SIM1]	–	–	–	–	–	–	–	–	–	–	–	–	–	–	–	inhibit stomatal movement
